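Grown in 96-well plates, cells were treated for 48 hours with each compound at five concentrations. Insufficient inhibition: endpoint recorded as highest concentration tested. Here, GI50 denotes the concentration required for 50% inhibition of growth.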 Calls of active or inactive are those of the source. No stated cut-off is given here; in the data, active = GI50 up to about 1.1 µM and inactive = higher.
Assays:
Assay in all cases: NCI anticancer screen, dose series, 48 h
LXFL 529 = tested on: LXFL 529
DMS-273 = tested on: DMS-273
KM-20L2 = tested on: KM-20L2
DLD-1 = tested on: DLD-1
RXF 631 = tested on: RXF 631
SNB-78 = tested on: SNB-78
BT-549 = tested on: BT-549
NCI/ADR-RES = tested on: NCI/ADR-RES
MDA-MB-231 = tested on: MDA-MB-231

SMILES | GI50 (LXFL 529) | GI50 (DMS-273) | GI50 (KM-20L2) | GI50 (DLD-1) | GI50 (RXF 631) | GI50 (SNB-78) | GI50 (BT-549) | GI50 (NCI/ADR-RES) | GI50 (MDA-MB-231)
Cc1nc2ccc(C(F)(F)F)cc2nc1Nc1ccc(Cl)c(Cl)c1 | 7.87 µM (inactive) | 4.81 µM (inactive) | 4.11 µM (inactive) | 9.42 µM (inactive) | 7.41 µM (inactive) | 14.7 µM (inactive) |  |  | 
COC(=O)/C=c1\s/c(=C\C(=O)OC)c2ccccc12 | > 100 µM (inactive) | 6.44 µM (inactive) | > 100 µM (inactive) | 6.28 µM (inactive) | > 100 µM (inactive) | > 100 µM (inactive) |  |  | 
CC(=O)Nc1cccc2[nH]c3ccccc3c(=O)c12 |  | 32.2 µM (inactive) | 21.1 µM (inactive) | 15.3 µM (inactive) | 27 µM (inactive) |  |  |  | 
CC1OC(n2cc(F)c(=O)[nH]c2=O)CCC1O (centres undefined) | > 100 µM (inactive) | > 100 µM (inactive) | 95.1 µM (inactive) | > 100 µM (inactive) |  | > 100 µM (inactive) | > 100 µM (inactive) | > 100 µM (inactive) | > 100 µM (inactive)
CCC(C)C(=O)c1c(O)c(C/C=C(\C)CCC=C(C)C)c(O)c2c(C(O)CC)cc(=O)oc12 (centres undefined) | 1.16 µM (inactive) | 1.58 µM (inactive) | 1.23 µM (inactive) | 1.55 µM (inactive) | 1.74 µM (inactive) | 3.89 µM (inactive) |  |  | 
CC(=O)C1CC(C)=CCC12C(=O)Nc1ccccc12 (centres undefined) | > 100 µM (inactive) | > 100 µM (inactive) | > 100 µM (inactive) | > 100 µM (inactive) | > 100 µM (inactive) |  |  |  | 
COc1ccc2c(c1)O[C@H]1c3ccc(O)cc3OC[C@@H]21 | 25.4 µM (inactive) | 30.9 µM (inactive) | 31.6 µM (inactive) | 34.8 µM (inactive) | 31.8 µM (inactive) | 29.2 µM (inactive) |  |  | 
COc1cccc(/C=C/C(=O)c2sc(C(N)=S)nc2C)c1O | 14.3 µM (inactive) | 28.6 µM (inactive) | > 100 µM (inactive) | 28.3 µM (inactive) | 31.1 µM (inactive) | > 100 µM (inactive) |  |  | 
COc1cc(/C=C2/C(=O)NC(Cc3cc(OC)c(OC)c(C)c3OC)C(=O)N2Cc2ccccc2)c(OC)c(C)c1OC (centres undefined) | 34.8 µM (inactive) | 51.5 µM (inactive) | 95.9 µM (inactive) | 72.3 µM (inactive) | 90.2 µM (inactive) |  |  |  | 
COc1ccc(C(c2ccc(C(C)C)cc(=O)c2O)c2c(O)cc3oc(-c4ccccc4)cc(=O)c3c2O)cc1 (centres undefined) | 14 µM (inactive) | 5.08 µM (inactive) | 9.82 µM (inactive) | 4.11 µM (inactive) | 11.3 µM (inactive) | 20.8 µM (inactive) |  |  | 
CC(SC1=CC(=O)c2c(O)ccc(O)c2C1=O)C(=O)O (centres undefined) | > 35.5 µM (inactive) | > 60.4 µM (inactive) | > 51.8 µM (inactive) | > 39.8 µM (inactive) | 56.4 µM (inactive) | > 47.4 µM (inactive) |  |  | 
C#C[C@H](CCCC)OC(=O)N[C@H](C)c1ccccc1 | 36.3 µM (inactive) | 38.8 µM (inactive) | 66.5 µM (inactive) | 55.2 µM (inactive) | 62.1 µM (inactive) | 70 µM (inactive) |  |  | 
CC1=NN(c2ccccc2)C(=O)C12[C@H](c1ccccc1)C2(C#N)C#N (some centres undefined) | 1.96 µM (inactive) | 2.67 µM (inactive) | 11.8 µM (inactive) | 2 µM (inactive) |  | 13.8 µM (inactive) |  |  | 
CCOC(=O)/C=C1\Oc2ccccc2C1(C)O (centres undefined) | > 100 µM (inactive) | > 100 µM (inactive) | > 100 µM (inactive) | > 100 µM (inactive) |  | > 100 µM (inactive) |  |  | 
C/C(=N\N=C(/S)N1CCCCCC1)c1cccc[n+]1[O-] | 0.348 µM (active) | 1.87 µM (inactive) | 0.839 µM (active) | 0.0279 µM (active) | 8.59 µM (inactive) | 11 µM (inactive) | 16 µM (inactive) |  | 7.59 µM (inactive)
CC(=O)NC(CCCNC(=O)N(C)N=O)C(=O)NCc1ccccc1 (centres undefined) | > 100 µM (inactive) | > 100 µM (inactive) | > 100 µM (inactive) | > 100 µM (inactive) | > 100 µM (inactive) | > 100 µM (inactive) |  |  | 
CCCCCC[N+](C)(C)Cc1ccc(C[N+](C)(C)CCCCCC)cc1 | 3.33 µM (inactive) | 1.83 µM (inactive) | 6.56 µM (inactive) | 4.42 µM (inactive) |  | 1.16 µM (inactive) |  |  | 
CC(=O)n1nnc2ccc([N+](=O)[O-])cc21 | > 100 µM (inactive) | > 100 µM (inactive) | > 100 µM (inactive) | > 100 µM (inactive) |  | > 100 µM (inactive) |  |  | 
